Measurements reported in patent US20190047966A1, “NOVEL COMPOUND AND PHARMACOLOGICALLY ACCEPTABLE SALT THEREOF” (MEIJI SEIKA PHARMA CO., LTD., priority 2016, published 2019).
Counter-ions that a name gives are not always drawn.

Tests used:
[1] = biological target: human histamine H1 receptor (Homo sapiens, UniProt P35367); test: Evaluation of Human H1 Receptor Affinity ([3H]pyrilamine binding); design: purchased PerkinElmer Inc; host or cells: CHO-K1; details: inhibition constant Ki, CHO-K1 membrane preparation
Chain of human histamine H1 receptor (P35367 whole entry): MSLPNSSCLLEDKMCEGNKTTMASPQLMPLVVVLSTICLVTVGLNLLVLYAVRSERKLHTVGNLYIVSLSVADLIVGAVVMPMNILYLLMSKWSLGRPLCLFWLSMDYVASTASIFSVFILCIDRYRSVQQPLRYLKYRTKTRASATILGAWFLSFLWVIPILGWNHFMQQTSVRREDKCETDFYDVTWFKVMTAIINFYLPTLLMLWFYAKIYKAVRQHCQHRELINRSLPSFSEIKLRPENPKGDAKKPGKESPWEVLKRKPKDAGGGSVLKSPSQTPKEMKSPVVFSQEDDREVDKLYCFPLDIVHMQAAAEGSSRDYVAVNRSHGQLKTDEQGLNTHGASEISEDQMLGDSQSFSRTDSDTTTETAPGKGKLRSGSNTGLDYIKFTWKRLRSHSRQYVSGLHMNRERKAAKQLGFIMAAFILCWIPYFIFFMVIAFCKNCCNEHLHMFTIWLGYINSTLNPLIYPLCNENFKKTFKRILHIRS
Summary of the method: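 Ki values are Cheng-Prusoff conversions of IC50 (Kd 1.1 nM) from radioligand displacement of 1.2 nM [3H]pyrilamine, with 1.0 μM pyrilamine defining nonspecific binding.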

[2] = biological target: T1, human histamine H4 receptor (Homo sapiens, UniProt Q9H3N8); test: Evaluation of Human H4 Receptor Affinity ([3H]histamine binding); details: inhibition constant Ki, CHO-K1 membrane preparation, read-out: Evaluation of H4 Receptor Affinity
T1 construct: purchased PerkinElmer Inc; host or cells: CHO-K1
Summary of the method: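 Membranes from CHO-K1 cells expressing human H4 receptor incubated with 8.2 nM [3H]histamine and compound for 90 min at 25 °C in 50 mM Tris-HCl pH 7.4, 1.25 mM EDTA, then filtered and counted. Nonspecific binding defined with 1.0 μM histamine; Ki from IC50 by Cheng-Prusoff using Kd 5.7 nM.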

| Compound | Ki [1] [µM] | Ki [2] [µM] |
| --- | --- | --- |
| Nc1nc2c(c(N3CCN(CC(=O)NCCCC(=O)O)CC3)n1)CCc1cc(OCc3ccc(Cl)cc3)ccc1-2 [Example 125, 4-(2-(4-(2-amino-8-((4-chlorobenzyl)oxy)-5,6-dihydrobenzo[h]quinazolin-4-yl)piperazin-1-yl)acetamido)butanoic acid dihydrochloride] | < 0.1 | 0.1 to 0.5 |
| Nc1nc2c(c(N3CCN(CCOCCn4cc(C(=O)O)cn4)CC3)n1)CCc1cc(OCc3ccc(Cl)cc3)ccc1-2 [Example 133, 1-(2-(2-(4-(2-amino-8-((4-chlorobenzyl)oxy)-5,6-dihydrobenzo[h]quinazolin-4-yl)piperazin-1-yl)ethoxy)ethyl)-1H-pyrazole-4-carboxylic acid dihydrochloride] | < 0.1 | < 0.1 |
| Nc1nc2c(c(N3CCN(CCCCOc4ccc(C(=O)O)cc4)CC3)n1)CCc1cc(OCc3ccc(Cl)cc3)ccc1-2 [Example 134, 4-(4-(4-(2-amino-8-((4-chlorobenzyl)oxy)-5,6-dihydrobenzo[h]quinazolin-4-yl)piperazin-1-yl)butoxy)benzoic acid hydrochloride] | < 0.1 | 0.1 to 0.5 |
| Nc1nc2c(c(N3CCN(CCOc4ccc(CC(=O)O)cc4)CC3)n1)CCc1cc(OCc3ccc(Cl)cc3)ccc1-2 [Example 137, 2-(4-(2-(4-(2-amino-8-((4-chlorobenzyl)oxy)-5,6-dihydrobenzo[h]quinazolin-4-yl)piperazin-1-yl)ethoxy)phenyl)acetic acid dihydrochloride] | < 0.1 | < 0.1 |
| Nc1nc2c(c(N3CCN(CCc4cccc(OCC(=O)O)c4)CC3)n1)CCc1cc(OCc3ccc(Cl)cc3)ccc1-2 [Example 139, 2-(3-(2-(4-(2-amino-8-((4-chlorobenzyl)oxy)-5,6-dihydrobenzo[h]quinazolin-4-yl)piperazin-1-yl)ethyl)phenoxy)acetic acid dihydrochloride] | < 0.1 | 0.1 to 0.5 |
| Nc1nc2c(c(N3CCN(CCc4ccc(OCC(=O)O)cc4)CC3)n1)CCc1cc(OCc3ccc(Cl)cc3)ccc1-2 [Example 140, 2-(4-(2-(4-(2-amino-8-((4-chlorobenzyl)oxy)-5,6-dihydrobenzo[h]quinazolin-4-yl)piperazin-1-yl)ethyl)phenoxy)acetic acid dihydrochloride] | < 0.1 | 0.1 to 0.5 |
| Nc1nc2c(c(N3CCN(CCCCOC4CC(C(=O)O)C4)CC3)n1)CCc1cc(OCc3ccc(Cl)cc3)ccc1-2 (stereo not drawn) [Example 141, 3-(4-(4-(2-amino-8-((4-chlorobenzyl)oxy)-5,6-dihydrobenzo[h]quinazolin-4-yl)piperazin-1-yl)butoxy)cyclobutane-1-carboxylic acid dihydrochloride] | < 0.1 | 0.1 to 0.5 |
| Nc1nc2c(c(N3CCN(CCO[C@@H]4C[C@@H]5[C@H](C4)[C@H]5C(=O)O)CC3)n1)CCc1cc(OCc3ccc(OC(F)(F)F)cc3)ccc1-2 [Example 147, (1R,3s,55,6r)-3-(2-(4-(2-amino-8-((4-(trifluoromethoxy)benzyl)oxy)-5,6-dihydrobenzo[h]quinazolin-4-yl)piperazin-1-yl)ethoxy)bicyclo[3.1.0]hexane-6-carboxylic acid] | < 0.1 | < 0.1 |
| Nc1nc2c(c(N3CCN(CCO[C@@H]4C[C@@H]5[C@H](C4)[C@@H]5C(=O)O)CC3)n1)CCc1cc(OCc3ccc(OC(F)(F)F)cc3)ccc1-2 [Example 148, (1R,3s,5S,6s)-3-(2-(4-(2-amino-8-((4-(trifluoromethoxy)benzyl)oxy)-5,6-dihydrobenzo[h]quinazolin-4-yl)piperazin-1-yl)ethoxy)bicyclo[3.1.0]hexane-6-carboxylic acid] | < 0.1 | 0.1 to 0.5 |
| Nc1nc2c(c(N3CCN(CCOCC45C6C7C4C4C5C6C74C(=O)O)CC3)n1)CCc1cc(OCc3ccc(Cl)cc3)ccc1-2 (stereo not drawn) [Example 151, 4-((2-(4-(2-amino-8-((4-chlorobenzyl)oxy)-5,6-dihydrobenzo[h]quinazolin-4-yl)piperazin-1-yl)ethoxy)methyl)pentacyclo[4.2.0.0^2.5.0^3.8.0^4.7]octane-1-carboxylic acid dihydrochloride] | < 0.1 | < 0.1 |

The remaining lines, values ahead:

| Ki [1] [µM] | Ki [2] [µM] | Compound |
| --- | --- | --- |
| < 0.1 | < 0.1 | CCC(OCCOCCN1CCN(c2nc(N)nc3c2CCc2cc(OCc4ccc(Cl)cc4)ccc2-3)CC1)C(=O)O (stereo not drawn) [Example 126, 2-(2-(2-(4-(2-amino-8-((4-chlorobenzyl)oxy)-5,6-dihydrobenzo[h]quinazolin-4-yl)piperazin-1-yl)ethoxy)ethoxy)butanoic acid] |
| < 0.1 | 0.1 to 0.5 | Nc1nc2c(c(N3CCN(CCOc4cccc(CC(=O)O)c4)CC3)n1)CCc1cc(OCc3ccc(Cl)cc3)ccc1-2 [Example 130, 2-(3-(2-(4-(2-amino-8-((4-chlorobenzyl)oxy)-5,6-dihydrobenzo[h]quinazolin-4-yl)piperazin-1-yl)ethoxy)phenyl)acetic acid] |
| < 0.1 | 0.1 to 0.5 | Nc1nc2c(c(N3CCN(CCCCn4cc(C(=O)O)cn4)CC3)n1)CCc1cc(OCc3ccc(Cl)cc3)ccc1-2 [Example 132, 1-(4-(4-(2-amino-8-((4-chlorobenzyl)oxy)-5,6-dihydrobenzo[h]quinazolin-4-yl)piperazin-1-yl)butyl)-1H-pyrazole-4-carboxylic acid dihydrochloride] |
| < 0.1 | 0.1 to 0.5 | Nc1nc2c(c(N3CCN(CCOc4ccccc4CC(=O)O)CC3)n1)CCc1cc(OCc3ccc(Cl)cc3)ccc1-2 [Example 136, 2-(2-(2-(4-(2-amino-8-((4-chlorobenzyl)oxy)-5,6-dihydrobenzo[h]quinazolin-4-yl)piperazin-1-yl)ethoxy)phenyl)acetic acid dihydrochloride] |
| < 0.1 | 0.1 to 0.5 | Nc1nc2c(c(N3CCN(CCOCCn4ccc(C(=O)O)n4)CC3)n1)CCc1cc(OCc3ccc(Cl)cc3)ccc1-2 [Example 138, 1-(2-(2-(4-(2-amino-8-((4-chlorobenzyl)oxy)-5,6-dihydrobenzo[h]quinazolin-4-yl)piperazin-1-yl)ethoxy)ethyl)-1H-pyrazole-3-carboxylic acid dihydrochloride] |
| < 0.1 | < 0.1 | Nc1nc2c(c(N3CCN(CCOCc4nc(C(=O)O)cs4)CC3)n1)CCc1cc(OCc3ccc(OC(F)(F)F)cc3)ccc1-2 [Example 142, 2-((2-(4-(2-amino-8-((4-(trifluoromethoxy)benzyl)oxy)-5,6-dihydrobenzo[h]quinazolin-4-yl)piperazin-1-yl)ethoxy)methyl)thiazole-4-carboxylic acid dihydrochloride] |
| < 0.1 | < 0.1 | Nc1nc2c(c(N3CCN(CCCOCc4nnn[nH]4)CC3)n1)CCc1cc(OCc3ccc(Cl)cc3)ccc1-2 [Example 144, 4-(4-(3-((tetrazol-5-yl)methoxy)propyl)piperazin-1-yl)-8-((4-chlorobenzyl)oxy)-5,6-dihydrobenzo[h]quinazolin-2-amine bis(trifluoroacetate)] |
| < 0.1 | < 0.1 | Nc1nc2c(c(N3CCN(CCCCOCc4nnn[nH]4)CC3)n1)CCc1cc(OCc3ccc(Cl)cc3)ccc1-2 [Example 145, 4-(4-(4-((tetrazol-5-yl)methoxy)butyl)piperazin-1-yl)-8-((4-chlorobenzyl)oxy)-5,6-dihydrobenzo[h]quinazolin-2-amine bis(trifluoroacetate)] |
| < 0.1 | 0.1 to 0.5 | Nc1nc2c(c(N3CCN(CCO[C@H]4C[C@@H]5[C@H](C4)[C@H]5C(=O)O)CC3)n1)CCc1cc(OCc3ccc(OC(F)(F)F)cc3)ccc1-2 [Example 146, (1R,3r,5S,6r)-3-(2-(4-(2-amino-8-((4-(trifluoromethoxy)benzyl)oxy)-5,6-dihydrobenzo[h]quinazolin-4-yl)piperazin-1-yl)ethoxy)bicyclo[3.1.0]hexane-6-carboxylic acid] |
| < 0.1 | 0.1 to 0.5 | COC(=O)CC1CN(C(=O)OCCN2CCN(c3nc(N)nc4c3CCc3cc(OCc5ccc(Cl)cc5)ccc3-4)CC2)C1 [Example 149, 2-(4-(2-amino-8-((4-chlorobenzyl)oxy)-5,6-dihydrobenzo[h]quinazolin-4-yl)piperazin-1-yl)ethyl 3-(2-methoxy-2-oxoethyl)azetidine-1-carboxylate] |
| < 0.1 | 0.1 to 0.5 | COC(=O)C1CN(C(=O)OCCN2CCN(c3nc(N)nc4c3CCc3cc(OCc5ccc(Cl)cc5)ccc3-4)CC2)C1 [Example 150, 1-(2-(4-(2-amino-8-((4-chlorobenzyl)oxy)-5,6-dihydrobenzo[h]quinazolin-4-yl)piperazin-1-yl)ethyl) 3-methyl azetidine-1,3-dicarboxylate] |
| < 0.1 | 0.1 to 0.5 | Nc1nc2c(c(N3CCN(CCOC4CC4C(=O)O)CC3)n1)CCc1cc(OCc3ccc(Cl)cc3)ccc1-2 (stereo not drawn) [Example 154, 2-(2-(4-(2-amino-8-((4-chlorobenzyl)oxy)-5,6-dihydrobenzo[h]quinazolin-4-yl)piperazin-1-yl)ethoxy)cyclopropane-1-carboxylic acid] |
| < 0.1 | < 0.1 | Cn1cc(COCCN2CCN(c3nc(N)nc4c3CCc3cc(OCc5ccc(Cl)cc5)ccc3-4)CC2)cc1C(=O)O [Example 156, 4-((2-(4-(2-amino-8-((4-chlorobenzyl)oxy)-5,6-dihydrobenzo[h]quinazolin-4-yl)piperazin-1-yl)ethoxy)methyl)-1-methyl-1H-pyrrole-2-carboxylic acid hydrochloride] |
| < 0.1 | < 0.1 | Nc1nc2c(c(N3CCN(CCOC45CCC(C(=O)O)(CC4)CC5)CC3)n1)CCc1cc(OCc3ccc(Cl)cc3)ccc1-2 [Example 157, 4-(2-(4-(2-amino-8-((4-chlorobenzyl)oxy)-5,6-dihydrobenzo[h]quinazolin-4-yl)piperazin-1-yl)ethoxy)bicyclo[2.2.2]octane-1-carboxylic acid hydrochloride] |
